Data set [1] deals with Calcium/calmodulin-dependent protein kinase kinase 2 (Homo sapiens) (UniProt Q96RR4). The conditions noted are these: Compound concentration 1000.0 nM.
The target of data set [2] is Beta-adrenergic receptor kinase 1 (Homo sapiens) (UniProt P25098). The conditions noted are these: Compound concentration 1000.0 nM.
Data set [3] deals with Serine/threonine-protein kinase D3 (Homo sapiens) (UniProt O94806). The conditions noted are these: Compound concentration 1000.0 nM.
The target of data set [4] is Casein kinase I isoform gamma-3 (Homo sapiens) (UniProt Q9Y6M4). The conditions noted are these: Compound concentration 1000.0 nM.
Chain of Casein kinase I isoform gamma-3 (Homo sapiens) (Q9Y6M4 whole entry, looked up, canonical isoform): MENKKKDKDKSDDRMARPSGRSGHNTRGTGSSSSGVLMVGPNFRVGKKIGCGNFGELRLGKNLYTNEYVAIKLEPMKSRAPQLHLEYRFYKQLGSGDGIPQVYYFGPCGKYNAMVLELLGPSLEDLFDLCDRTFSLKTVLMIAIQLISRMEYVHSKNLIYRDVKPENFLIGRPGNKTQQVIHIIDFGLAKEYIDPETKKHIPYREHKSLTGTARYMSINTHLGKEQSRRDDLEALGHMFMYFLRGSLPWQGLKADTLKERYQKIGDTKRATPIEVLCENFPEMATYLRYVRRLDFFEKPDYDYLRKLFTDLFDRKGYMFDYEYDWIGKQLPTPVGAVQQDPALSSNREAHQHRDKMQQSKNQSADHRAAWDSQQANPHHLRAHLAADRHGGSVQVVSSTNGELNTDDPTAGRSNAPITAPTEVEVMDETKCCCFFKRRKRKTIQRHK
Data set [5] has as its target Calcium/calmodulin-dependent protein kinase kinase 1 (Homo sapiens) (UniProt Q8N5S9). The conditions noted are these: Compound concentration 1000.0 nM.
Data set [6] has as its target T1, D(4) dopamine receptor (Homo sapiens) (UniProt P21917).
T1 sequence (whole entry): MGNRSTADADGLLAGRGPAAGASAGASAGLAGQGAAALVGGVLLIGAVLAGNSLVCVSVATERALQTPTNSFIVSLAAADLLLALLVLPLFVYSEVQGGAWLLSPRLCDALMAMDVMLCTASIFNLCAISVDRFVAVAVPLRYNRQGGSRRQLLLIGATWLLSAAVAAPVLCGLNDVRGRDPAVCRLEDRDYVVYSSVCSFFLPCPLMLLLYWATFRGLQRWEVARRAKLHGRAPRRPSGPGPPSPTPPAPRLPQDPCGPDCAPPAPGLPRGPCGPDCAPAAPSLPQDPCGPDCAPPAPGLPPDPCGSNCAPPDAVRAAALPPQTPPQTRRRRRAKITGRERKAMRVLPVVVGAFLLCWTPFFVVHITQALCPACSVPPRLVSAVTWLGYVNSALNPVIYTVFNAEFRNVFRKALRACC
The experiment in a line: D4.4 (h) CEREP ligand profiling. The conditions noted are these: Compound concentration 10.0 uM.

In data set [7] the target is 5-hydroxytryptamine receptor 7 (Homo sapiens) (UniProt P34969). The experiment in a line: 5-HT7 (h) CEREP ligand profiling. The conditions noted are these: Compound concentration 10.0 uM.
Chain of 5-hydroxytryptamine receptor 7 (Homo sapiens) (P34969 whole entry): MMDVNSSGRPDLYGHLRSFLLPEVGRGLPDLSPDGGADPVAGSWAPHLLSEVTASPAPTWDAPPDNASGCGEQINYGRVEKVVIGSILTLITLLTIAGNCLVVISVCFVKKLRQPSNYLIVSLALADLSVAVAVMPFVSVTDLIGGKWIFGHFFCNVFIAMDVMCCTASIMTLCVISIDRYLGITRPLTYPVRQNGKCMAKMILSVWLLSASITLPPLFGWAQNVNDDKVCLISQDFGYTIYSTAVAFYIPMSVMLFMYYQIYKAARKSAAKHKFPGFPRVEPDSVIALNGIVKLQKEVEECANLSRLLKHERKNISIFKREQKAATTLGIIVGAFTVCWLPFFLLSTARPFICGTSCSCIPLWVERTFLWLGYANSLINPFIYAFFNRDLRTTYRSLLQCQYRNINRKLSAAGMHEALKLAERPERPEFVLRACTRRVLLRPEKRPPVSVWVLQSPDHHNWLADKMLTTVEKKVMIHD
Data set [8] addresses Substance-K receptor (Homo sapiens) (UniProt P21452). The experiment in a line: NK2 (h) CEREP ligand profiling. The conditions noted are these: Compound concentration 10.0 uM.
Data set [9] has as its target Galanin receptor type 1 (Homo sapiens) (UniProt P47211). The experiment in a line: GAL1 (h) CEREP ligand profiling. The conditions noted are these: Compound concentration 10.0 uM.
The target in data set [10] is Melanocortin receptor 4 (Homo sapiens) (UniProt P32245). The data set can be described thus: MC4 (h) CEREP ligand profiling. The conditions noted are these: Compound concentration 10.0 uM.
Chain of Melanocortin receptor 4 (Homo sapiens) (P32245 whole entry): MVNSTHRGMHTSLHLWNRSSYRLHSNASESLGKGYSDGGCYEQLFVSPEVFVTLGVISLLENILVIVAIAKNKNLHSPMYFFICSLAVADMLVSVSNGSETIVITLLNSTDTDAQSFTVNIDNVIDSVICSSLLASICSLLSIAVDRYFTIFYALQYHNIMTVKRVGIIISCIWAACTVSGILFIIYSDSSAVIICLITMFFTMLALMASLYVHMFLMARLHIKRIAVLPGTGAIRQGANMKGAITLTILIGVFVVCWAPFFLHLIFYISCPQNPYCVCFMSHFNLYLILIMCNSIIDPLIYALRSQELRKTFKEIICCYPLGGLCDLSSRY
The target in data set [11] is Neuromedin-K receptor (Homo sapiens) (UniProt P29371). The data set can be described thus: NK3 (h) CEREP ligand profiling. The conditions noted are these: Compound concentration 10.0 uM.
Chain of Neuromedin-K receptor (Homo sapiens) (P29371 whole entry): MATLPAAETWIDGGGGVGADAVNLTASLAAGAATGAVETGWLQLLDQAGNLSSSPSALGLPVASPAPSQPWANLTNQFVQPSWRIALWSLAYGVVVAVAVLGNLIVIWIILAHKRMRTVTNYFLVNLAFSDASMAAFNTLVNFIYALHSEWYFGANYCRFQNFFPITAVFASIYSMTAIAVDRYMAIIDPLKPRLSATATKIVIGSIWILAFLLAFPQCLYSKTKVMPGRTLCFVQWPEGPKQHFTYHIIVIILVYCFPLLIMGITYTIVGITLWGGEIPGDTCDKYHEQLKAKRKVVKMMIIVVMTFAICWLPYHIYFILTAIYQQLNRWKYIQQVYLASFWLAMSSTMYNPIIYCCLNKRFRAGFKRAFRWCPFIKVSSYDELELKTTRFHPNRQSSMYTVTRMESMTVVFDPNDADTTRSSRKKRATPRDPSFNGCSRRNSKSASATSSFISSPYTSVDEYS
Data set [12] addresses B2 bradykinin receptor (Homo sapiens) (UniProt P30411). The experiment in a line: B2 (h) CEREP ligand profiling. The conditions noted are these: Compound concentration 10.0 uM.
Data set [13] has as its target C-X-C chemokine receptor type 2 (Homo sapiens) (UniProt P25025). The experiment in a line: CXCR2 (h) CEREP ligand profiling. The conditions noted are these: Compound concentration 10.0 uM.
In data set [14] the target is 5-hydroxytryptamine receptor 6 (Homo sapiens) (UniProt P50406). The experiment in a line: 5-HT6 (h) CEREP ligand profiling. The conditions noted are these: Compound concentration 10.0 uM.
Chain of 5-hydroxytryptamine receptor 6 (Homo sapiens) (P50406 whole entry): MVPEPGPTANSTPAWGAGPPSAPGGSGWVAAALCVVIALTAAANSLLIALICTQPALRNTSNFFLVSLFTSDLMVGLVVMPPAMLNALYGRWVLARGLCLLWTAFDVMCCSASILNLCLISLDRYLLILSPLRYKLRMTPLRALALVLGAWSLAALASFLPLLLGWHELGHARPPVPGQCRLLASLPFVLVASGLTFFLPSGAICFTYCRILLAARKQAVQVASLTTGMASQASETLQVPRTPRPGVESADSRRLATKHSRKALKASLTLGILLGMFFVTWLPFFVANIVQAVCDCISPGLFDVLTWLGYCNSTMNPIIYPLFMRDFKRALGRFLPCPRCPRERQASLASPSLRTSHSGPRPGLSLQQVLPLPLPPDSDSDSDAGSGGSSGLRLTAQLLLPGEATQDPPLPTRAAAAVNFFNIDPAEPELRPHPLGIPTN
Data set [15] addresses Ca2+ channel (voltage-gated L-type calcium channel family) (Homo sapiens, UniProt O60840+Q01668+Q13698+Q13936). The experiment in a line: Ca2+ channel CEREP ligand profiling. The conditions noted are these: probe penylalkylamine (ligand); compound concentration 10 uM. The class given is protein assay.
The target in data set [16] is D(1B) dopamine receptor (Homo sapiens) (UniProt P21918). The data set can be described thus: D5 (h) CEREP ligand profiling. The conditions noted are these: Compound concentration 10.0 uM.
Chain of D(1B) dopamine receptor (Homo sapiens) (P21918 whole entry): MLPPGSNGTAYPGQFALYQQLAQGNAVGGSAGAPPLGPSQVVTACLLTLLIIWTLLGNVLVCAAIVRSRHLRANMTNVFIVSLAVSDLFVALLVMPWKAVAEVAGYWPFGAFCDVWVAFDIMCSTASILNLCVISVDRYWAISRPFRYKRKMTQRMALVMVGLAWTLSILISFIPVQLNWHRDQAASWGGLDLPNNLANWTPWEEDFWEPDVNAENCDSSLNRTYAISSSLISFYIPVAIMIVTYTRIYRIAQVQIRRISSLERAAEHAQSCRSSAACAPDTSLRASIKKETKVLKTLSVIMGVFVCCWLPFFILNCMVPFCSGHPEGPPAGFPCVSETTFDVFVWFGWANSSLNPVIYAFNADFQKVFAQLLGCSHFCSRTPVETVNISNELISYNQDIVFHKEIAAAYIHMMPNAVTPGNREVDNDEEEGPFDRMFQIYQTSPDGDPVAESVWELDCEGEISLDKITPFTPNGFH
Data set [17] has as its target T2, 5-hydroxytryptamine receptor 3A (Homo sapiens) (UniProt P46098).
T2 sequence (whole entry): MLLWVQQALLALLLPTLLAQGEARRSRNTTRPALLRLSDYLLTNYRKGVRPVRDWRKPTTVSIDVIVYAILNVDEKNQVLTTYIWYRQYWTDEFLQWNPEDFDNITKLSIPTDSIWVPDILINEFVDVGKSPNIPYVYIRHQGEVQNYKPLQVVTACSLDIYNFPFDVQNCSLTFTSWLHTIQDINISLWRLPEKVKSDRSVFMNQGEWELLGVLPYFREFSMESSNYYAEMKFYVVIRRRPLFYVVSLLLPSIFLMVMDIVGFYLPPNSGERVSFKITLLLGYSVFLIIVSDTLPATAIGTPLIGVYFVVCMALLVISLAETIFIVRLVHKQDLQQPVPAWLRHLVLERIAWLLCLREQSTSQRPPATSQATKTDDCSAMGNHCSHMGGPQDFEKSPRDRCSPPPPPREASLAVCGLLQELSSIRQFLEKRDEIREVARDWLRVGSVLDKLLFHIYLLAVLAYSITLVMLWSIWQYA
The experiment in a line: 5-HT3 (h) CEREP ligand profiling. The conditions noted are these: Compound concentration 10.0 uM.

Data set [18] concerns the target Melatonin receptor type 1A (Homo sapiens) (UniProt P48039). The data set can be described thus: MT1 (h) CEREP ligand profiling. The conditions noted are these: Compound concentration 10.0 uM.
Data set [19] deals with T3, Muscarinic acetylcholine receptor M2 (Homo sapiens) (UniProt P08172).
T3 sequence (whole entry): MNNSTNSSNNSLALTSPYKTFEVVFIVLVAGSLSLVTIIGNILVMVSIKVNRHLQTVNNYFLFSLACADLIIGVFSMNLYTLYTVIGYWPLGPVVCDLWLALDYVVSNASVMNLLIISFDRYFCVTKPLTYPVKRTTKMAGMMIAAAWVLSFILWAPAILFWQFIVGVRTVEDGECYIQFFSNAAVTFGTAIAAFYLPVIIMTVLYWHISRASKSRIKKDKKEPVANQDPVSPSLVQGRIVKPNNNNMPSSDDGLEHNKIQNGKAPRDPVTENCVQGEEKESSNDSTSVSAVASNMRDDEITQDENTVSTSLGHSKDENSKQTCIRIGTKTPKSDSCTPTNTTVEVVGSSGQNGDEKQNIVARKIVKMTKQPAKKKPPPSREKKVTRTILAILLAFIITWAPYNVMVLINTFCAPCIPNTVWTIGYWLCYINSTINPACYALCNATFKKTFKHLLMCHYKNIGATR
The data set can be described thus: M2 (h) CEREP ligand profiling. The conditions noted are these: Compound concentration 10.0 uM.

Data set [20] addresses Substance-P receptor (Homo sapiens) (UniProt P25103). The data set can be described thus: NK1 (h) CEREP ligand profiling. The conditions noted are these: Compound concentration 10.0 uM.
Data set [21] deals with P2X receptor (Rattus norvegicus) (UniProt P51579+P49653+P51578+Q64663+P47824+P51577+P49654). The experiment in a line: P2X CEREP ligand profiling. The class given is protein assay. The conditions noted are these: Compound concentration 10.0 uM.

Residual activity and inhibition data for two compounds are collected here from ChEMBL document CHEMBL4507256 (2021).

Chain of Substance-P receptor (Homo sapiens) (P25103 whole entry): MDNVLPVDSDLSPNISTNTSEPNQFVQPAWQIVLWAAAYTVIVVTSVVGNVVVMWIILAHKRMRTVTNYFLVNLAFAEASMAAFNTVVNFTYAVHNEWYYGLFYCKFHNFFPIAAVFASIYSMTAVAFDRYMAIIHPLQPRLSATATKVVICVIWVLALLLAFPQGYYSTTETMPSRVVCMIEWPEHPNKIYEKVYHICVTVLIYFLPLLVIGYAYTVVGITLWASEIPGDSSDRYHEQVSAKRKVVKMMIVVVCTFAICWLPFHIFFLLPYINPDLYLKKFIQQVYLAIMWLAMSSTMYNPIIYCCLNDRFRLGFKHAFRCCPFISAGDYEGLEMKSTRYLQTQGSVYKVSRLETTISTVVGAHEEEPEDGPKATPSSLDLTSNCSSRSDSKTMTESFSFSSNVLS
Chain of Galanin receptor type 1 (Homo sapiens) (P47211 whole entry): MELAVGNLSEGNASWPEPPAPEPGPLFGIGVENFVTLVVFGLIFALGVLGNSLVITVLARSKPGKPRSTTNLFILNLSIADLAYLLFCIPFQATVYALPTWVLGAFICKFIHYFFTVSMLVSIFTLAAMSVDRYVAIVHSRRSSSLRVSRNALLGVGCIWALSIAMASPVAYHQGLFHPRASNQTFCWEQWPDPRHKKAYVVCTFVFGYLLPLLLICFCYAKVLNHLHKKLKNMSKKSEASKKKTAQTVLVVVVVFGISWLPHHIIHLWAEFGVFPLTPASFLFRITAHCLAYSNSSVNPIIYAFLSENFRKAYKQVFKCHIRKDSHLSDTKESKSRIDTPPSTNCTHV
Chain of B2 bradykinin receptor (Homo sapiens) (P30411 whole entry): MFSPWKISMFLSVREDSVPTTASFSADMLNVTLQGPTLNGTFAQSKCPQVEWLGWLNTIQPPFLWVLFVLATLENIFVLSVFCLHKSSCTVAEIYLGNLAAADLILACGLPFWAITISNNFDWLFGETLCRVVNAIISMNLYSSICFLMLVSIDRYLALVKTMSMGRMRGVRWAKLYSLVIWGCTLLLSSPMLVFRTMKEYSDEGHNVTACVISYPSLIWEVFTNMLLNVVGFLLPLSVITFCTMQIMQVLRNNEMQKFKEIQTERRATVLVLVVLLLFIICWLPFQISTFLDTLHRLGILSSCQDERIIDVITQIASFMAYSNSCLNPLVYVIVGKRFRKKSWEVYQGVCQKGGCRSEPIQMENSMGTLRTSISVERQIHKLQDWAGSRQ
Chain of C-X-C chemokine receptor type 2 (Homo sapiens) (P25025 whole entry): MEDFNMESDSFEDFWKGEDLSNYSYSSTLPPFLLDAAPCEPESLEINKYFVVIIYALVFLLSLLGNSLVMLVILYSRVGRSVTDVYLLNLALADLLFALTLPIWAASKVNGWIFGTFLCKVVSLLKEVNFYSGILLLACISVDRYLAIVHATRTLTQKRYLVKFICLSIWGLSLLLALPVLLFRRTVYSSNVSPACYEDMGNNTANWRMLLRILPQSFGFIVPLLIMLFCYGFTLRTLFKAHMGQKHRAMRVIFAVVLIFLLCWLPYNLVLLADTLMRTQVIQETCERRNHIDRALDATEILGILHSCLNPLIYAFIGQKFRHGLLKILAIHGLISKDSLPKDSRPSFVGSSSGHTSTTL
Chain of Melatonin receptor type 1A (Homo sapiens) (P48039 whole entry): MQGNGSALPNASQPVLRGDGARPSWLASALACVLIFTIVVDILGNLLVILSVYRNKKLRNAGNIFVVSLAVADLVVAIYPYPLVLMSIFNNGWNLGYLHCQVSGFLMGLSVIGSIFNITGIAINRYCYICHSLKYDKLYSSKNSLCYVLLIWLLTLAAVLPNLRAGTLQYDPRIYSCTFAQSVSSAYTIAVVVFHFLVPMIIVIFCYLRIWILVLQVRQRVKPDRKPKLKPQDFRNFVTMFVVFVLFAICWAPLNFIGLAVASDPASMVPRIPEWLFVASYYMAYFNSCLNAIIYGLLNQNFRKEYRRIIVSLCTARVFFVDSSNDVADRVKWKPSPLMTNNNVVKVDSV
Chain of Substance-K receptor (Homo sapiens) (P21452 whole entry): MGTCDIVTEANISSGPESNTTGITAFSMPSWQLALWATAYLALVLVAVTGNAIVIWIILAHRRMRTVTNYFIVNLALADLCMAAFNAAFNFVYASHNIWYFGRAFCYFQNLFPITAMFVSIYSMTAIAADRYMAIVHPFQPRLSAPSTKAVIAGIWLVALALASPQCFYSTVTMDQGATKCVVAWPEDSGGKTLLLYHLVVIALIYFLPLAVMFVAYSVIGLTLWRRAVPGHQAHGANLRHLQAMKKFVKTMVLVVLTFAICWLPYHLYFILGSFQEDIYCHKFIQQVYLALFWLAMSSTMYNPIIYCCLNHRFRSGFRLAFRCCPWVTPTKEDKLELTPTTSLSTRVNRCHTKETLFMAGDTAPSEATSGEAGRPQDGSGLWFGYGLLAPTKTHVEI

A word on the residual activity: it is the signal under treatment as a percentage of the control signal. In the case of `CCC(=N\O)/C(C)=C/c1ccc(F)c(C)c1` [A-226], the residual activity is 88% in data set [1]; 100% in data set [2]; 100% in [3]; 100% in data set [4]; 100% in [5].

Usually inhibition stands for the drop in the measured response relative to a control, in per cent. With `CCC(=N\O)/C(C)=C/c1ccc(F)cc1` [A-079], the inhibition in data set [6] is 4%; in [7], 17%; in data set [8], 2%; in data set [9] it was 5%; in data set [10], 2%; in data set [11] it was 23%. Besides, the inhibition in data set [12] was 2%; in [13] it was -1%; in data set [14], 0%; in data set [16] it was -8%; in data set [17], 0%; in data set [18] it was 31%. Besides, the inhibition is 13% in data set [19], -3% in [20] and -2% in data set [21]. Further, the inhibition at 10 µM in data set [15] was 3% (not active).
